# Assay results published in ChEMBL document CHEMBL4304820, “Design, synthesis and biological evaluation of novel serotonin and dopamine receptor ligands being 6-bromohexyl saccharine derivatives” (Bioorg Med Chem Lett, 2019).
# Assays:
# [1] = target: T1, 5-hydroxytryptamine receptor 1A (Homo sapiens, UniProt P08908); test: Displacement of [3H]-8-OH-DPAT from full length human cloned 5HT1A receptor expressed in HEK293 cells incubated for 1 hr by radioligand displacement assay; assay type: cell-based
# T1 sequence (P08908 whole entry): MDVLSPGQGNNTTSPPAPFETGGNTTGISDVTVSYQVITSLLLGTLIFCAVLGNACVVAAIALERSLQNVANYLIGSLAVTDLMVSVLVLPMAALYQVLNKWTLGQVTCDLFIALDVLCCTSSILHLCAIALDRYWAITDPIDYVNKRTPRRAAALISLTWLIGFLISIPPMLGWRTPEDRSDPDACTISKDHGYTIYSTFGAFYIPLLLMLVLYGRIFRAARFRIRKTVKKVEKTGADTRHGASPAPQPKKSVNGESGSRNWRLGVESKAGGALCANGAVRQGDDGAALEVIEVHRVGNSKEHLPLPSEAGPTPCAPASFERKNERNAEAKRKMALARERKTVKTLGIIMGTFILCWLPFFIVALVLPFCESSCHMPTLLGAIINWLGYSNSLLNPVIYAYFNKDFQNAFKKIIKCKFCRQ
# [2] = target: T2, D(2) dopamine receptor (Homo sapiens, UniProt P14416); test: Displacement of [3H]raclopride from full length human cloned D2L receptor expressed in HEK293 cells incubated for 1 hr by radioligand displacement assay; assay type: cell-based
# T2 sequence (P14416 whole entry): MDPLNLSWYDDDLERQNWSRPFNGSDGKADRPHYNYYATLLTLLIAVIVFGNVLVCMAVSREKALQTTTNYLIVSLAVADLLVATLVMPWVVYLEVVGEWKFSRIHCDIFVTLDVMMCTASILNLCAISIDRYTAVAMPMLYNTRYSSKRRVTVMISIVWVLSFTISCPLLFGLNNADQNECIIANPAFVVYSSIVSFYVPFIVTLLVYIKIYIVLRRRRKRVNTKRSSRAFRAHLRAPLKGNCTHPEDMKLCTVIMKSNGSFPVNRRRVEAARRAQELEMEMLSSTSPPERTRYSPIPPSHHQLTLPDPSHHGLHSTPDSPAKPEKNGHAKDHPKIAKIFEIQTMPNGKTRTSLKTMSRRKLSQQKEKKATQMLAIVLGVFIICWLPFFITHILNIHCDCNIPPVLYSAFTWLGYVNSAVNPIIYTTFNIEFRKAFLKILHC
# [3] = target: 5-hydroxytryptamine receptor 2A (Homo sapiens, UniProt P28223); test: Displacement of [3H]ketanserin from full length human cloned 5HT2A receptor expressed in CHO-K1 cells incubated for 1 hr by radioligand displacement assay; assay type: cell-based
# 5-hydroxytryptamine receptor 2A (Homo sapiens, UniProt P28223), sequence (P28223 whole entry): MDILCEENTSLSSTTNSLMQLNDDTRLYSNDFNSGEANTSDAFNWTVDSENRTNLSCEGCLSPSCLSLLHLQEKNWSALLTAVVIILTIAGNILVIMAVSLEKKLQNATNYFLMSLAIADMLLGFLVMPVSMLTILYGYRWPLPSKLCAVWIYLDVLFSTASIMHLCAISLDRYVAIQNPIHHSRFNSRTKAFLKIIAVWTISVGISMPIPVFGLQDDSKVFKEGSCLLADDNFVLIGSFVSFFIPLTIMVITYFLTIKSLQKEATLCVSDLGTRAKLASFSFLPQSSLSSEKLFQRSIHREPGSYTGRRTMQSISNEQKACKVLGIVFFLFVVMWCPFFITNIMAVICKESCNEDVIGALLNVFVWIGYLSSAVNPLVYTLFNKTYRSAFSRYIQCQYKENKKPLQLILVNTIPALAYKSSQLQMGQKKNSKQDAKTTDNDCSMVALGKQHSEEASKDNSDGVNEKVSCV
# [4] = target: 5-hydroxytryptamine receptor 6 (Homo sapiens, UniProt P50406); test: Displacement of [3H]LSD from full length human cloned 5HT6R expressed in HEK293 cells incubated for 1 hr by radioligand displacement assay; assay type: cell-based
# 5-hydroxytryptamine receptor 6, sequence (P50406 whole entry): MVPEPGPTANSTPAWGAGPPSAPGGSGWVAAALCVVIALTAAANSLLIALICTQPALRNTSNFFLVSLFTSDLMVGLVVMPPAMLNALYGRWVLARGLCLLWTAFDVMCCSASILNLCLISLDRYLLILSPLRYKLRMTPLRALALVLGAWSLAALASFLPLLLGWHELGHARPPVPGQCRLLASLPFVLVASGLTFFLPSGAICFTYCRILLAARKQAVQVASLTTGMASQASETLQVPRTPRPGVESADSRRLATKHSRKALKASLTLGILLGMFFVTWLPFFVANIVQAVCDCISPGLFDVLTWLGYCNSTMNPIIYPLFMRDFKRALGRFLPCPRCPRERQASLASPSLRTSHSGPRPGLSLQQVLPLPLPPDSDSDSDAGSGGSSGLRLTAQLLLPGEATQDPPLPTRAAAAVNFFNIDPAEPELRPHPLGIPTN
# [5] = target: 5-hydroxytryptamine receptor 7 (Homo sapiens, UniProt P34969); test: Displacement of [3H]5-CT from full length human cloned 5-HT7bR expressed in HEK293 cells incubated for 1 hr by radioligand displacement assay; assay type: cell-based
# 5-hydroxytryptamine receptor 7, sequence (P34969 whole entry): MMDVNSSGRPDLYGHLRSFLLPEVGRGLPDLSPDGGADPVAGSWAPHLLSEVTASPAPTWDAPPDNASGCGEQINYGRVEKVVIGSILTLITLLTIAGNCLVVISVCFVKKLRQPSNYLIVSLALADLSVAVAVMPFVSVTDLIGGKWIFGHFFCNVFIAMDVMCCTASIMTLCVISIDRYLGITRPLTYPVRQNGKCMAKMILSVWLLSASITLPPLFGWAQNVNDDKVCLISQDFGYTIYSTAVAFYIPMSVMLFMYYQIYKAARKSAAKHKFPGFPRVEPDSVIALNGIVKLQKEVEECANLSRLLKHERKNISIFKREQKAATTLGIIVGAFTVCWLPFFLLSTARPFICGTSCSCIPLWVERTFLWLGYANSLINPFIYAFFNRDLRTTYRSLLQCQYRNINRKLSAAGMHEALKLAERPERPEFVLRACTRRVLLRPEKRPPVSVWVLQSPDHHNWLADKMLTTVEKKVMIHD
# [6] = target: T2, D(2) dopamine receptor; test: Antagonist activity at human D2 receptor expressed in HEK293 cells assessed as cAMP accumulation incubated for 30 mins in presence of forskolin/dopamine by TR-FRET assay; assay type: functional, cell-based
# [7] = target: T3, 5-hydroxytryptamine receptor 1A (Homo sapiens) (UniProt P08908); test: Antagonist activity at human 5 HT1A receptor expressed in HEK293 cells assessed as cAMP accumulation incubated for 30 mins in presence of forskolin/8-OH-DPAT by TR-FRET assay; assay type: functional, cell-based
# T3 sequence (whole entry): T1 sequence (P08908 whole entry)
# [8] = target: T4, 5-hydroxytryptamine receptor 1A (Rattus norvegicus, UniProt P19327); test: Displacement of [3H]-8-OH-DPAT from 5HT1A receptor in rat brain hippocampus incubated for 60 mins by radioligand binding assay
# T4 sequence (P19327 whole entry): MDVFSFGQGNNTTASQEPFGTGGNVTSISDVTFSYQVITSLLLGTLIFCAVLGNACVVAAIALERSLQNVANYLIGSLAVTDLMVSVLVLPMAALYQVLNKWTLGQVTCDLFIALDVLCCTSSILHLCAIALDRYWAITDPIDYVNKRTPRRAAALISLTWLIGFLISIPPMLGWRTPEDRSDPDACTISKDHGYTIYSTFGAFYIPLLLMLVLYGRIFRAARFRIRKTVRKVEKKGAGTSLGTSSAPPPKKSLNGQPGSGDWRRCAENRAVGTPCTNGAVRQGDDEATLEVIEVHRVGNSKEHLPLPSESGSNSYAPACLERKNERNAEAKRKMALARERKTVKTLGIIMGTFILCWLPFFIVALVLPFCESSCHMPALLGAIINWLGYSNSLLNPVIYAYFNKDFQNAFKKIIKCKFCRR
# [9] = target: D(2) dopamine receptor (Rattus norvegicus, UniProt P61169); test: Displacement of [3H]raclopride from D2 receptor in rat brain striatum incubated for 60 mins by radioligand binding assay; assay type: tissue-based
# D(2) dopamine receptor (Rattus norvegicus, UniProt P61169), sequence (P61169 whole entry): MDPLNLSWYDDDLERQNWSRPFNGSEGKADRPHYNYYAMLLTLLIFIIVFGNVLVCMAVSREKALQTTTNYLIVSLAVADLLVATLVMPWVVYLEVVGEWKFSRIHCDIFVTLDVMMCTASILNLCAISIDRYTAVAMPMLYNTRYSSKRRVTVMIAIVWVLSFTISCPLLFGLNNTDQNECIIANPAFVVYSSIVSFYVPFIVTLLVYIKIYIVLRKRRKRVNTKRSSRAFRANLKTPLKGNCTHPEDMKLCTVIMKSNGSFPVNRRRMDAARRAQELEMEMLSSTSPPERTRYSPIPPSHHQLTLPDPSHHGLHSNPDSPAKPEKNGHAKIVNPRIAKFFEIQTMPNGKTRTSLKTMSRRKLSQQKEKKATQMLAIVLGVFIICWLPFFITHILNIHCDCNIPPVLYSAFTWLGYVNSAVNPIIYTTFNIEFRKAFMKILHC
# [10] = target: T4, 5-hydroxytryptamine receptor 1A; test: Displacement of [3H]-8-OH-DPAT from 5HT1A receptor in Wistar rat brain cerebral cortex incubated for 30 mins by liquid scintillation spectrometry; assay type: tissue-based
# [11] = target: 5-hydroxytryptamine receptor 2A (Rattus norvegicus, UniProt P14842); test: Displacement of [3H]ketanserin from 5-HT2A receptor in Wistar rat brain frontal cortex incubated for 30 mins by radioligand binding assay; assay type: tissue-based
# 5-hydroxytryptamine receptor 2A (Rattus norvegicus, UniProt P14842), sequence (P14842 whole entry): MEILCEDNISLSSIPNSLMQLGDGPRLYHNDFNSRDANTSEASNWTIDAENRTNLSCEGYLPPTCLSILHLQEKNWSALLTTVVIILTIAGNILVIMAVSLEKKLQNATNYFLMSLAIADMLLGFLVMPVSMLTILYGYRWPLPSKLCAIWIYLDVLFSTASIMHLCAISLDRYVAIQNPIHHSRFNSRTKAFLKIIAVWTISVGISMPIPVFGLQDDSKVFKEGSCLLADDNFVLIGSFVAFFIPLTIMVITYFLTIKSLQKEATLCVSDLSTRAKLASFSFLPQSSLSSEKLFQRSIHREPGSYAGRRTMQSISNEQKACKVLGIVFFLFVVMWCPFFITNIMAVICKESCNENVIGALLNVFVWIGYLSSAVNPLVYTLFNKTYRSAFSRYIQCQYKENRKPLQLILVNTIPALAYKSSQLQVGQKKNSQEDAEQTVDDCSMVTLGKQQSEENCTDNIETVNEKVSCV
# [12] = target: T1, 5-hydroxytryptamine receptor 1A; test: Agonist activity at human 5 HT1A receptor expressed in HEK293 cells assessed as inhibition of forskolin-stimulated cAMP accumulation incubated for 30 mins by TR-FRET assay; assay type: functional, cell-based
# [13] = target: T2, D(2) dopamine receptor; test: Displacement of [3H]raclopride from human cloned D2 receptor expressed in HEK293 cells by radioligand binding assay; assay type: cell-based
SMILES,Ki [1] [nM],Ki [2] [nM],Ki [3] [nM],Ki [4] [nM],Ki [5] [nM],further results
O=C1c2ccccc2S(=O)(=O)N1CCCCCCN1CCN(c2ccccc2F)CC1,12,24,307,1620,322,
O=C1c2ccccc2S(=O)(=O)N1CCCCCCN1CCN(c2ncccn2)CC1,24,51,183,104,35,
COc1ccccc1N1CCN(CCCCCCN2C(=O)c3ccccc3S2(=O)=O)CC1,91,61,,,,
O=C1c2ccccc2S(=O)(=O)N1CCCCCCN1CCN(c2cccc3ccccc23)CC1,9,8,91,157,20,Kb [6]: 14 nM; Kb [7]: 14 nM
O=C1c2ccccc2S(=O)(=O)N1CCCCCCN1CCN(c2ccc(Cl)cc2)CC1,84,28,,,,
COc1ccc(N2CCN(CCCCCCN3C(=O)c4ccccc4S3(=O)=O)CC2)cc1,327,950,,,,
O=C1c2ccccc2S(=O)(=O)N1CCCCCCN1CCN(c2cccc(Cl)c2)CC1,21,39,361,372,233,
O=C1c2ccccc2S(=O)(=O)N1CCCCCCN1CCN(c2cccc(Cl)c2Cl)CC1,58,132,209,920,119,
O=c1ccc2ccc(OCCCCN3CCN(c4cccc5sccc45)CC3)cc2[nH]1 [BREXPIPRAZOLE],,,,,,Ki [8]: 0.09 nM; Ki [9]: 3.8 nM
O=C1c2ccccc2S(=O)(=O)N1CCCCCCN1CCN(c2cccc3cccnc23)CC1,4,15,205,1720,21,Kb [6]: 10 nM; Kb [7]: 7 nM
O=C1c2ccccc2S(=O)(=O)N1CCCCN1CCN(c2cccc(C(F)(F)F)c2)CC1,,,,,,Ki [10]: 100 nM; Ki [11]: 2250 nM
O=C1c2ccccc2S(=O)(=O)N1CCCCCCN1CCN(c2ccccc2C(F)(F)F)CC1,156,27,922,1270,195,
O=C1c2ccccc2S(=O)(=O)N1CCCCCCN1CCN(c2cccc(C(F)(F)F)c2)CC1,25,7,167,52,58,Kb [6]: 319 nM; EC50 [12]: 56 nM
O=C1c2ccccc2S(=O)(=O)N1CCCCCCN1CCN(c2ccccn2)CC1,13,239,1290,2350,552,
O=C1c2ccccc2S(=O)(=O)N1CCCCN1CCN(c2ncccn2)CC1 [IPSAPIRONE],,,,,,Ki [13]: 1220 nM
COc1cccc(N2CCN(CCCCCCN3C(=O)c4ccccc4S3(=O)=O)CC2)c1,19,113,342,921,305,
O=C1c2ccccc2S(=O)(=O)N1CCCCCCN1CCN(c2ccccc2Cl)CC1,26,45,266,459,120,
O=C1c2ccccc2S(=O)(=O)N1CCCCCCN1CCN(c2ccccc2)CC1,20,48,321,971,192,
O=C1c2ccccc2S(=O)(=O)N1CCCCCCN1CCN(c2nsc3ccccc23)CC1,23,9,23,58,45,
O=C1c2ccccc2S(=O)(=O)N1CCCCCCN1CCN(c2ccc(Cl)c(Cl)c2)CC1,54,105,283,132,258,
